Measurements taken from PubChem BioAssay (NCI).
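In this assay, cells in 96-well plates receive the compound at five concentrations for 48 hours. Endpoints are linearly interpolated between the surrounding concentrations. GI50: concentration for 50% inhibition of growth. TGI is the concentration that stops growth completely.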

Experiments:
Experiment in all cases: NCI anticancer screen, dose series, 48 h
HCT-15 colon = test system: HCT-15 colon
RPMI-8226 leukemia = test system: RPMI-8226 leukemia
NCI-H460 lung = test system: NCI-H460 lung
HL-60(TB) leukemia = test system: HL-60(TB) leukemia
CCRF-CEM leukemia = test system: CCRF-CEM leukemia
T-47D breast = test system: T-47D breast
ACHN renal = test system: ACHN renal
SW-620 colon = test system: SW-620 colon
MDA-MB-435 = test system: MDA-MB-435
UACC-257 melanoma = test system: UACC-257 melanoma
786-0 renal = test system: 786-0 renal

Row | Compound | GI50 (HCT-15 colon) [µM] | TGI (HCT-15 colon) [µM] | GI50 (RPMI-8226 leukemia) [µM] | TGI (RPMI-8226 leukemia) [µM] | GI50 (NCI-H460 lung) [µM] | TGI (NCI-H460 lung) [µM] | GI50 (HL-60(TB) leukemia) [µM] | TGI (HL-60(TB) leukemia) [µM] | GI50 (CCRF-CEM leukemia) [µM] | TGI (CCRF-CEM leukemia) [µM] | GI50 (T-47D breast) [µM] | TGI (T-47D breast) [µM] | GI50 (ACHN renal) [µM] | TGI (ACHN renal) [µM] | GI50 (SW-620 colon) [µM] | TGI (SW-620 colon) [µM] | GI50 (MDA-MB-435) [µM] | TGI (MDA-MB-435) [µM] | TGI (UACC-257 melanoma) [µM] | TGI (786-0 renal) [µM]
1 | CN1CCN(c2ccc(-c3ccc4ncc(C#N)c(Nc5ccc(F)c(Cl)c5)c4c3)cc2)CC1 | 1.05 | 3.62 | 1.92 | 5.5 | 2.05 | 6.67 | 1.68 | 4.45 | 2.2 | 6.52 | 1.93 | 7.15 | 0.491 | 2.72 | 2.81 | 14.5 | 1.89 | 3.68 |  | 
2 | COc1cc(-c2n/c(=C\c3c(O)[nH]c4ccc(Cl)cc34)cc3c2=Nc2ccccc2-3)cc(OC)c1OC | 1.56 | 8.44 | 2.68 | 19.7 |  |  | 10.7 | 38.1 | 0.849 | 37.3 | 1.28 | 3.21 | 0.449 | 1.65 | 0.366 | 1.6 | 2.08 | 5.15 |  | 
3 | Cc1nc(Cl)c(Cl)c(Cl)n1 |  | 1.96 |  | 0.203 |  | 6.33 |  | 0.0553 |  | 0.0333 |  | 7.71 |  | 1.1 |  | 0.149 |  | 1.71 | 1.62 | 1.47
4 | O=C(N/C(=C\c1ccccc1[N+](=O)[O-])c1nc2ccccc2[nH]1)c1ccccc1 |  | > 100 |  |  |  |  |  |  |  | > 100 |  |  |  |  |  | > 100 |  |  |  | 
5 | CC(C)(N)CO[C@H]1C[C@H]2CC[C@@]1(C)C2(C)C |  | 47 |  | 40.7 |  | 36.3 |  |  |  | 83.6 |  | 35.9 |  | 95 |  | 54.4 |  | 30.5 | 34.7 | 30.2
6 | O=c1[nH][nH]c(=O)[nH]1 |  | > 100 |  | > 100 |  | > 100 |  | > 100 |  | > 100 |  |  |  |  |  | > 100 |  |  | > 100 | > 100
7 | CCn1nc(C)c2c1C(=O)NC(C)C(=O)N2 (configuration not stated) |  | 28.3 |  |  |  | > 100 |  |  |  |  |  |  |  | > 100 |  | > 100 |  | > 100 | > 100 | 
